In ChEMBL document CHEMBL3991601, “The target landscape of clinical kinase drugs” (Science, 2017):
Active and inactive are the calls of the source. Cut-off read from the data, not from the text of the source, for most assays here: actives have a measured Kd and inactives only a lower limit.

Key:
Ephrin type-A receptor 7 = Ephrin type-A receptor 7 (Homo sapiens, UniProt Q15375)
[1] = target: RAC-alpha serine/threonine-protein kinase (Homo sapiens, UniProt P31749)
[2] = target: Serine/threonine-protein kinase pim-1 (Homo sapiens, UniProt P11309)
[3] = target: MAP/microtubule affinity-regulating kinase 3 (Homo sapiens, UniProt P27448)
[4] = target: T1, Membrane-associated tyrosine- and threonine-specific cdc2-inhibitory kinase (Homo sapiens, UniProt Q99640)
T1 sequence (Q99640 whole entry): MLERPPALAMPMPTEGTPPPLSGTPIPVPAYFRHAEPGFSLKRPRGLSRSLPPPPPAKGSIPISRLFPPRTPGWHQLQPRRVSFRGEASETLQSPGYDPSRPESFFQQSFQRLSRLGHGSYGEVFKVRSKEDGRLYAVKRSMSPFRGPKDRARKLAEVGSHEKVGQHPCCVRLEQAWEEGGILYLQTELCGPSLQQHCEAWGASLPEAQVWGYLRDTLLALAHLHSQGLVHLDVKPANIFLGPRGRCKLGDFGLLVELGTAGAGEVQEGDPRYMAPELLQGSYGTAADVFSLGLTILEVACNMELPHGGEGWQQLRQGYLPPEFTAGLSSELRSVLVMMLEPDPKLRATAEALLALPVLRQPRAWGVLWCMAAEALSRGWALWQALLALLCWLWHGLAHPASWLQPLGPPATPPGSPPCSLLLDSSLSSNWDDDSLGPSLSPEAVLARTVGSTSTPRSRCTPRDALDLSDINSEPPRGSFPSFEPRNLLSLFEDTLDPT

[5] = target: Tyrosine-protein kinase CSK (Homo sapiens, UniProt P41240)
[6] = target: T2, Inhibitor of nuclear factor kappa-B kinase subunit epsilon (Homo sapiens, UniProt Q14164)
T2 sequence (Q14164 whole entry): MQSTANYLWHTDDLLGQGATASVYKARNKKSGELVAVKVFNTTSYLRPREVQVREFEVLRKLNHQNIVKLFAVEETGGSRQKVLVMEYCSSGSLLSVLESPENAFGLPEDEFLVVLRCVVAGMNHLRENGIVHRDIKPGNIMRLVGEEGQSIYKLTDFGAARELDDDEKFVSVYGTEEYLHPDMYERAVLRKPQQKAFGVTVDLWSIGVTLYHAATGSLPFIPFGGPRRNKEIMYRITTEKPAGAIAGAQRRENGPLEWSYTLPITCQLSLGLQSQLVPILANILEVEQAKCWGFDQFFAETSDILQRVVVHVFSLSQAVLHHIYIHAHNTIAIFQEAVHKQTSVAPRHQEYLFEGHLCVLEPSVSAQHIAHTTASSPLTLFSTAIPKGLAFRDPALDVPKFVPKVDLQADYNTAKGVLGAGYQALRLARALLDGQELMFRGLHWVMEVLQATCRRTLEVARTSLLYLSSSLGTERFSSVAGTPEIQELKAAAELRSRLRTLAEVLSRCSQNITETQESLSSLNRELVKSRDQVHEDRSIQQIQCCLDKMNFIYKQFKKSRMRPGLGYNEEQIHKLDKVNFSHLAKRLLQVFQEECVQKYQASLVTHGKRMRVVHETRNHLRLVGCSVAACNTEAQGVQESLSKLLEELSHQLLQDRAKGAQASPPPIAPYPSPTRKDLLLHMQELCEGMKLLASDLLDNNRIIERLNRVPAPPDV

Ephrin type-A receptor 5 = Ephrin type-A receptor 5 (Homo sapiens, UniProt P54756)
[7] = target: Elongation factor Tu, mitochondrial (Homo sapiens, UniProt P49411)
[8] = target: Tyrosine-protein kinase Fer (Homo sapiens, UniProt P16591)
[9] = target: Casein kinase II subunit alpha' (Homo sapiens, UniProt P19784)
[10] = target: T3, Phosphorylase b kinase gamma catalytic chain, liver/testis isoform (Homo sapiens, UniProt P15735)
T3 sequence (P15735 whole entry): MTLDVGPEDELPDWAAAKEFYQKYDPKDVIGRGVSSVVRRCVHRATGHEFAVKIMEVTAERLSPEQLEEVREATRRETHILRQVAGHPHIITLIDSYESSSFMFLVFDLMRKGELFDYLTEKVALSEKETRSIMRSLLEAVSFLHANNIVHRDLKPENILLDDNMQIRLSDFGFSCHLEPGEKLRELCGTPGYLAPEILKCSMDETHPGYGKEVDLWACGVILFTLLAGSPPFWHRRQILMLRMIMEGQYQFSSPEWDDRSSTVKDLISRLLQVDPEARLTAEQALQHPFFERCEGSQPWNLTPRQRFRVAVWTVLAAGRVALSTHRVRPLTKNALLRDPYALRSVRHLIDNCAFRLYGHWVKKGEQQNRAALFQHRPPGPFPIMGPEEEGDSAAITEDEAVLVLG

[11] = target: Rho-associated protein kinase 2 (Homo sapiens, UniProt O75116)
[12] = target: BMP-2-inducible protein kinase (Homo sapiens, UniProt Q9NSY1)
[13] = target: Proto-oncogene tyrosine-protein kinase Src (Homo sapiens, UniProt P12931)
[14] = target: S-adenosylmethionine synthase isoform type-2 (Homo sapiens, UniProt P31153)

Measured: Kd
Note: in the data inactive means no Kd found up to 30 µM.

Sequence of Ephrin type-A receptor 7 (Q15375 whole entry): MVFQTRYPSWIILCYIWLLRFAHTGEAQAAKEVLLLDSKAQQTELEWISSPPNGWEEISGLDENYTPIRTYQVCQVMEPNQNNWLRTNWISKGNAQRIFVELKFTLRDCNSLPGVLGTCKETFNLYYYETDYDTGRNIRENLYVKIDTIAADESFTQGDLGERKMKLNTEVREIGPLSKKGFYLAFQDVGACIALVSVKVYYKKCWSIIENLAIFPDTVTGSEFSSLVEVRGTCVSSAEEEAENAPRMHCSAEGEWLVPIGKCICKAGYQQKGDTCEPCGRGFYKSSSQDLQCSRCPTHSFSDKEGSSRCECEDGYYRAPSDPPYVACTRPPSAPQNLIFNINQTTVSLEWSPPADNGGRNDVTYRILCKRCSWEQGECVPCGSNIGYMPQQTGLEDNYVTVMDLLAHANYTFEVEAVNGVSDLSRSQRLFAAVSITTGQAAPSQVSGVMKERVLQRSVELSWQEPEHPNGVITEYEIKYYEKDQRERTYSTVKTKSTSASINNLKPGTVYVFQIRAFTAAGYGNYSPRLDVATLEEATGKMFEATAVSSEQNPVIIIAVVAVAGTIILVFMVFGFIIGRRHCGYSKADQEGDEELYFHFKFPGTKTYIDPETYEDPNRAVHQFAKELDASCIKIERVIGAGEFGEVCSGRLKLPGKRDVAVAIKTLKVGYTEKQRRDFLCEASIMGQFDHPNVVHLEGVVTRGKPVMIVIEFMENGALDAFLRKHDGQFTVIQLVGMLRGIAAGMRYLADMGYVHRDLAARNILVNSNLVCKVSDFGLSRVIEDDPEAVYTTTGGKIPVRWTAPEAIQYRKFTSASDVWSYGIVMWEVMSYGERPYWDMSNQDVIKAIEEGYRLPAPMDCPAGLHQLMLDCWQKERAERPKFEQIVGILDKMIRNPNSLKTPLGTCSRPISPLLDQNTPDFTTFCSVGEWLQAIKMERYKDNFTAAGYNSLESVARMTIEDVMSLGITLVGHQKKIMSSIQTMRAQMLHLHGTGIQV
Sequence of RAC-alpha serine/threonine-protein kinase (P31749 whole entry): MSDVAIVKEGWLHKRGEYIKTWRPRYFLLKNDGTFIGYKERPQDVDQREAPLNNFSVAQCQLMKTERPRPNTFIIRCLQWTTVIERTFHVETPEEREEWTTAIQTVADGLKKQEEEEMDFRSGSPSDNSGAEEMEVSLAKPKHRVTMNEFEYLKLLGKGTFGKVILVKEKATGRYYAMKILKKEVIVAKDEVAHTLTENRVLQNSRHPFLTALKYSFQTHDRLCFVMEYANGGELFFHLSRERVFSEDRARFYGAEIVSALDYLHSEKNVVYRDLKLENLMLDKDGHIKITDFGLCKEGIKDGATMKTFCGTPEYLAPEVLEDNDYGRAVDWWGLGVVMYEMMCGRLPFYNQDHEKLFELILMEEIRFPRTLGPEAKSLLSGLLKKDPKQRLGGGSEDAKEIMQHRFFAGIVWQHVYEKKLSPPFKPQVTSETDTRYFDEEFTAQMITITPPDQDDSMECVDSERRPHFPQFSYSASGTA
Sequence of Serine/threonine-protein kinase pim-1 (P11309 whole entry): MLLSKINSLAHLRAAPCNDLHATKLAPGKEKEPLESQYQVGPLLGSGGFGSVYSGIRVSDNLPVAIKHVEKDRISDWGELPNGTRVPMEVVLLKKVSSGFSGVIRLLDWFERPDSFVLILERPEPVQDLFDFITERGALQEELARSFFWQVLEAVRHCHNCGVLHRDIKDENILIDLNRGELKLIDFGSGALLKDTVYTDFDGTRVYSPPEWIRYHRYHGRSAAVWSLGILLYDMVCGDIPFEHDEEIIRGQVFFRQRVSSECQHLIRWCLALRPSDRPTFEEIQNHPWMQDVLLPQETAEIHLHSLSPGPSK
Sequence of Tyrosine-protein kinase Fer (P16591 whole entry): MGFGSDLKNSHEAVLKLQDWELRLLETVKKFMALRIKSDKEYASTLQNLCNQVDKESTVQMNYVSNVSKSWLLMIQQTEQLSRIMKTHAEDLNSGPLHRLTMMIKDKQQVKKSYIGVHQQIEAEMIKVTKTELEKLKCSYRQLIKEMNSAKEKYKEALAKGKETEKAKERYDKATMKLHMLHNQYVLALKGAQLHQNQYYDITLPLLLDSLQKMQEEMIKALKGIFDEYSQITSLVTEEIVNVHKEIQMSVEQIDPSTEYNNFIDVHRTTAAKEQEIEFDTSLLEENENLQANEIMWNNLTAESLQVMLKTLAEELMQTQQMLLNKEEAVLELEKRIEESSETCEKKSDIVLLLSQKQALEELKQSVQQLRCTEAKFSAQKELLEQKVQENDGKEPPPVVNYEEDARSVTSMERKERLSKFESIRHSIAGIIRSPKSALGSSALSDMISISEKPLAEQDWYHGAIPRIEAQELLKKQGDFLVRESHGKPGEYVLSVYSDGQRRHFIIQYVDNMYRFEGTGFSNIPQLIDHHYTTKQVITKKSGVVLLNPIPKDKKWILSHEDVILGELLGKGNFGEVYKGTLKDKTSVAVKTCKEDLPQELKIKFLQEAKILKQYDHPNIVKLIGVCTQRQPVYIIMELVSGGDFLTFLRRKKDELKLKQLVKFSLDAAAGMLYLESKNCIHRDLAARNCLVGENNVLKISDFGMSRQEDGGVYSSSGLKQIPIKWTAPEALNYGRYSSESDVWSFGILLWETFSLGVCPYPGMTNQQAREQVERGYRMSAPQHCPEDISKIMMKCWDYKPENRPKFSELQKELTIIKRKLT
Sequence of Casein kinase II subunit alpha' (P19784 whole entry, canonical isoform): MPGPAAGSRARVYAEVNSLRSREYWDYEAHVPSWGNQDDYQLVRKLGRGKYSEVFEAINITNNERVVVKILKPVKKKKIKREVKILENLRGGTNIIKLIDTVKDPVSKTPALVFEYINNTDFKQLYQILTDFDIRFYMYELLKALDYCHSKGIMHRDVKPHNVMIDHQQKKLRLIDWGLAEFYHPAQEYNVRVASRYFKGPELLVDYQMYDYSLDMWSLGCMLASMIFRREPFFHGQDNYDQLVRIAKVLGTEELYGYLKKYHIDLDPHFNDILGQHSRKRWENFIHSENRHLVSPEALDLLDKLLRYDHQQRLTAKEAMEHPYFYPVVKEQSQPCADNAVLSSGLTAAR
Sequence of Ephrin type-A receptor 5 (P54756 whole entry): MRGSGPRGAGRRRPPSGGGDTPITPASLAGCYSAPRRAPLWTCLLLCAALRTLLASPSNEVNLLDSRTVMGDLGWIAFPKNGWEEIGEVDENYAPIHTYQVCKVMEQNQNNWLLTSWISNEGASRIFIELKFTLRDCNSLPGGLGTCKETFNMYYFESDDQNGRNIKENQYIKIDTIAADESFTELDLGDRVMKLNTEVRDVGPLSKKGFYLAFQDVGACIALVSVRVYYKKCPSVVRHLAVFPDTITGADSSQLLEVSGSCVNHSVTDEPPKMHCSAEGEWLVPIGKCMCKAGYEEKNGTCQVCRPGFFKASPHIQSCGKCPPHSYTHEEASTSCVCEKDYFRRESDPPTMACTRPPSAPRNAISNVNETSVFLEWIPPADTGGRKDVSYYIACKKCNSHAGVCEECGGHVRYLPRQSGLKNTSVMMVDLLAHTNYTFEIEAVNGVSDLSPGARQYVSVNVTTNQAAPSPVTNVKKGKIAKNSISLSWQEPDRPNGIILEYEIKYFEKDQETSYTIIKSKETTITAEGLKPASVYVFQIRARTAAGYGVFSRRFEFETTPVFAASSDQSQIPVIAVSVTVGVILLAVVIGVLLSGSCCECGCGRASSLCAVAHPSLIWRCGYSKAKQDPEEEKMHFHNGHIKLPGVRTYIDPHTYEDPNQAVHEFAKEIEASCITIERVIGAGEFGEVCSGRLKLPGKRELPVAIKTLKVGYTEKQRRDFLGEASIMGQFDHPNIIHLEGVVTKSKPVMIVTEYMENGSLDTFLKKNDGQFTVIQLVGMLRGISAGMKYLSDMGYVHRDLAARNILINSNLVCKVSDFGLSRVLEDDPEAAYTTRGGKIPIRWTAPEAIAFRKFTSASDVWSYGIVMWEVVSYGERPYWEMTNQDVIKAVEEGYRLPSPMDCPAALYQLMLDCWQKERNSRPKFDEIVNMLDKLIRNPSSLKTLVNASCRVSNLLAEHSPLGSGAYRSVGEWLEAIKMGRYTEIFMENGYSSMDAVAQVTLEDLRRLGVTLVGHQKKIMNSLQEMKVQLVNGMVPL
Sequence of Proto-oncogene tyrosine-protein kinase Src (P12931 2-536 limits assumed): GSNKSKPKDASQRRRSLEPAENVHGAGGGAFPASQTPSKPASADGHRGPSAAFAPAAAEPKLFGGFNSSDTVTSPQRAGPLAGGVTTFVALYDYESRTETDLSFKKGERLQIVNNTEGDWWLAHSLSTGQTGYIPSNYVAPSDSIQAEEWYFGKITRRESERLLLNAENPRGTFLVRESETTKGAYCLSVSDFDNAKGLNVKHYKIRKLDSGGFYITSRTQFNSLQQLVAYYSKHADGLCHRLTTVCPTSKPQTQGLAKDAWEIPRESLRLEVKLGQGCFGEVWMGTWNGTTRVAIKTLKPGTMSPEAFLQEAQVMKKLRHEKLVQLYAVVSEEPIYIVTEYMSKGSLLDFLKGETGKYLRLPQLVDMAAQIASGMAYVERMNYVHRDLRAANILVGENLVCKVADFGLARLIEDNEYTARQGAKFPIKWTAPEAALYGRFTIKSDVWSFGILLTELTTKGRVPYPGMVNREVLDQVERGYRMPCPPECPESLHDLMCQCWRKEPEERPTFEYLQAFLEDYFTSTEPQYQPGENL
Sequence of S-adenosylmethionine synthase isoform type-2 (P31153 whole entry, canonical isoform): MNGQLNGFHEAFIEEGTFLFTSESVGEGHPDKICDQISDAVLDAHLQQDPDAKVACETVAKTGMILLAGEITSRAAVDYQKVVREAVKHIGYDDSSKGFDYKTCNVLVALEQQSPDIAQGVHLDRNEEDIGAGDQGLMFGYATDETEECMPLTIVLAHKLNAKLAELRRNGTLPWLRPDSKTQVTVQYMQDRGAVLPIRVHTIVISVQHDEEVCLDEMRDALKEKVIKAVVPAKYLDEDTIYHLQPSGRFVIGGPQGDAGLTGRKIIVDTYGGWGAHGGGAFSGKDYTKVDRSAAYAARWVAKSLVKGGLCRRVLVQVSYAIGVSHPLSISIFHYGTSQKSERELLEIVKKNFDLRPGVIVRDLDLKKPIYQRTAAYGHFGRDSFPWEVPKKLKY

C[C@@H]1COC(Nc2ccc3ncnc(Nc4ccc(OCc5nccs5)c(Cl)c4)c3c2)=N1 [VARLITINIB]
inactive: Ephrin type-A receptor 7 > 30 µM | [1] > 30 µM | [2] > 30 µM | [3] > 30 µM | [4] > 30 µM | [5] > 30 µM | [6] > 30 µM | Ephrin type-A receptor 5 > 30 µM | [7] > 30 µM | [8] > 30 µM | [9] > 30 µM | [10] > 30 µM | [11] > 30 µM | [12] > 30 µM | [13] > 30 µM | [14] > 30 µM

CNC(=O)c1cccc(-c2ccc3c(N4CCOC[C@@H]4C)nc(N4CCOC[C@@H]4C)nc3n2)c1 [VISTUSERTIB]
inactive: Ephrin type-A receptor 7 > 30 µM | [1] > 30 µM | [2] > 30 µM | [3] > 30 µM | [4] > 30 µM | [5] > 30 µM | [6] > 30 µM | Ephrin type-A receptor 5 > 30 µM | [7] > 30 µM | [8] > 30 µM | [9] > 30 µM | [10] > 30 µM | [11] > 30 µM | [12] > 30 µM | [13] > 30 µM | [14] > 30 µM

NC(=O)c1ccc(N(C(N)=O)c2c(F)cccc2F)nc1-c1ccc(F)cc1F [VX-702]
inactive: Ephrin type-A receptor 7 > 30 µM | [1] > 30 µM | [2] > 30 µM | [3] > 30 µM | [4] > 30 µM | [5] > 30 µM | [6] > 30 µM | Ephrin type-A receptor 5 > 30 µM | [7] > 30 µM | [8] > 30 µM | [9] > 30 µM | [10] > 30 µM | [11] > 30 µM | [12] > 30 µM | [13] > 30 µM | [14] > 30 µM

COc1cc2ncnc(Nc3ccc(O)cc3)c2cc1OC [WHI-P131]
inactive: Ephrin type-A receptor 7 > 30 µM | [1] > 30 µM | [2] > 30 µM | [3] > 30 µM | [4] > 30 µM | [5] > 30 µM | [6] > 30 µM | Ephrin type-A receptor 5 > 30 µM | [7] > 30 µM | [8] > 30 µM | [9] > 30 µM | [10] > 30 µM | [11] > 30 µM | [12] > 30 µM | [13] > 30 µM | [14] > 30 µM
